From US20210393807A1, “PHOTOACOUSTIC VOLTAGE-SENSITIVE DYES FOR IN VIVO IMAGING” (The Johns Hopkins University, priority 2016, published 2021)
Values joined by “and” are separate entries in the source; they are usually repeats but may differ in a detail not shown here. Equal entries are not always repeated. “Also recorded” adds a separate entry of the source. Each block holds one compound with its values, some of them ahead of it.

Assays:
[1] = Photoacoustic measurement and quantum yield estimation of near-infrared VSD in lipid vesicle phantom; assay type: physicochemical; conditions: for PA intensity decrease in depolarization state compared to polarized state (pure VSD contrast): 790 nm
Text: (§1) 2.5.1 Photoacoustic imaging setup. For the recording of electrophysiological brain activities in vivo, an ultrasound research system was utilized that consisted of ultrasound array transducer (L 14-5/38) connected to a real-time data acquisition system (SonixDAQ, Ultrasonix Medical Corp., Canada). To induce the PA signals, pulsed laser light was generated by a second-harmonic (532 nm) Nd:YAG laser pumping an optical parametric oscillator (OPO) system (Phocus Inline, Opotek Inc., USA). The tunable range of the laser system was 690-900 nm and the maximum pulse repetition frequency was 20 Hz. The laser pulse was delivered into the probe through bifurcated fiber optic bundles, each 40 mm long and 0.88 mm wide. The PA probe was located at around the Interaural 11.2 mm and Bregma 2.2 mm to obtain the cross-section of motor cortexes (FIG. 15). The energy density at skin surface was only 3.5 mJ/cm^2, which is far below the ANSI safety limit restricting the 5-ns pulsed laser exposure at 700-1400 nm of wavelength range to be lower than 20 mJ/cm^2. 2.5.2 Lipid vesicle phantom preparation for VSD validation. The lipid vesicle model was prepared using the same procedure as in Zhang et al (Zhang, et al., 2017); 25-mg soybean phosphatidyl-choline (type II) suspended in 1 mL of K^+ buffer was used as the lipid vesicles. This vesicle contains 100 mM K2SO4 and 20 mM HEPES. The suspension was vortexed for 10 min, and followed by 60 min of sonication within bath-type sonicator to yield a translucent vesicle suspension. A Na^+ buffer was also prepared, which contains 100 mM Na2SO4 and 20 mM HEPES. Afterwards, approximately a 100:1 K^+ gradient across vesicle membrane was established with 10 μL of lipid vesicle suspension added to 1 mL of Na^+ buffer. In the vesicle phantom prepared, negative membrane potential (polarized state) was mimicked by adding 2.5 μL of 10 μM valinomycin—a K^+ specific ionophore, thereby K^+ ions were transported from inside to outside of vesicle membranes.
Otherwise, 2.5 μL of 1 mM gramicidin, a nonspecific monovalent cation ionophore, enables Na+ cations to move from outside to inside of vesicle membranes to short circuit the membrane potential (depolarized state).
2.5.3 Estimation of quantum yield change of VSD. The quantum yields of the near-infrared VSD in depolarized states […] were estimated based on the Eq. 8 and 9 disclosed previously. […] The quantum yield in the polarized state (ΦF) were also estimated by compensating for the absorbance and fluorescence emission changes when depolarized: ΦF=(CF/Cabs)Φ′F.

rat brain motor cortex = experiment: Transcranial PA imaging of chemoconvulsant (PTZ) seizure neural activity; assay type: in vivo, Sprague Dawley rats; conditions: for neural activity index (fractional change vs baseline): baseline 1.00±0.20
Text: as §1
2.5.4 Animal preparation. For the proposed in vivo experiments. […]

rat motor cortex [2] = experiment: EEG validation of seizure activity in the in vivo protocol; conditions: IV VSD treatment; anesthetized rats
Method: 2.5.9 EEG validation of neural seizure activity. To obtain the EEG records of electrical spike discharges that originated from motor cortex shown in FIG. 14, sub-dermal scalp EEG recording electrodes were located at the corresponding locations on motor cortex indicated by Xs in FIG. 21A, the schematic of the rat cranium (three electrodes, 1 recording and 1 reference over motor cortex, 1 ground electrode over rostrum). The EEG signal at motor cortex was recorded with the identical preparation procedures in PA imaging including animal preparation, administration of IR780, Lexiscan, and PTZ, time duration for recording, and interval between sequences in the protocol. Data acquisition was done using Sirenia software (Pinnacle Technologies Inc., Kansas, USA) with synchronous video capture. […] The files were stored in .EDF format and scored manually for protocol stages using real time annotations added to the recording during the experiments.

[3] = system: blood-brain barrier (BBB); experiment: PA intensity monitoring of VSD penetration through BBB with regadenoson; assay type: in vivo, rat; conditions: brain tissue region; intravenous; last 2 min (8-10 min), 480 time points
Method: (Carman, et al., 2011) For preliminary studies, the dosage and IV administration method indicated by the manufacturer was utilized. A volume of 150 μl of the standard concentration of 0.08 mg/1 ml was given to each animal regardless of the weight, followed by 150 μl flush of 0.9% sodium chloride for injection. VSD penetration was expected during the Lexiscan's biological half-life, i.e., 2-4 minutes, thereby the experimental protocol was designed based on the pharmacological assumption. In vivo experimental protocol. The in vivo protocols were respectively designed for three experimental groups: negative control, control, and seizure groups. […] Note that each data acquisition was performed for 10 min to cover the biological half-life of Lexiscan (2-3 min). Each dosing protocol of Lexiscan and VSD was as follows: through the jugular vein catheter port located in the neck, 150 μl of Lexiscan 0.4 mg/5 ml concentration was injected, and 300 μl of VSD was subsequently administrated at 0.1 mg/ml concentration, followed by 150 μl of saline solution flush. […] The negative control group was designed to validate the incapability of Lexiscan and PTZ to generate any bias on PA neural activity detection by excluding VSD administration. […]

[4] = Spectrophotometric measurements of near-infrared VSD in lipid vesicle phantom; assay type: physicochemical
Text: as §1, with “Afterwards, approximately a 100:1 K^+ gradient across vesicle membrane was established with 10 μL of lipid vesicle suspension added to 1 mL of Na^+ buffer. In the vesicle phantom prepared, negative membrane potential (polarized state) was mimicked by adding 2.5 μL of 10 μM valinomycin—a K^+ specific ionophore, thereby K^+ ions were transported from inside to outside of vesicle membranes.” left out
Otherwise, 2.5 μL of 1 mM gramicidin, a nonspecific monovalent cation ionophore, enables Na+ cations to move from outside to inside of vesicle membranes to short circuit the membrane potential (depolarized state). From these controls, our near-infrared VSD positively charged can move in and out through the vesicle membrane, leading to the change in fluorescence quenching depending on their aggregation status.

rat motor cortex [5] = experiment: VSD toxicity study, EEG during direct cortical application via cranial window; assay type: in vivo
Method: 2.5.10 Validation of protocol for using sub-dermal EEG electrodes to determine toxic CNS effects of VSDs. VSDs effect on EEG signal from sub-dermal scalp electrodes was investigated in a pilot by direct cortical applications of increasing concentrations of VSDs in anesthetized rat with limited craniotomies while recording synchronous vEEGs (FIG. 21).
Increasing concentrations of VSD were tested in the same rat at temporally spaced time-points. Rats were anesthetized with IP injection to ketamine/xylazine and a cranial window made over the right motor cortex. After recording a baseline EEG in the rat for 10-min duration with the craniotomy, the follow-on EEG recording continued to record EEG following application of increasing concentrations of vehicle alone and VSD+ vehicle for the same duration of EEG recordings (i.e., 10 min) allowing comparisons of EEG responses to each increasing gradient of VSD on cortical activity as compared to baseline EEG signature in the same rat.

[6] = in vivo; cited from earlier work
[7] = Photoacoustic characterization of PA-VSD in lipid vesicle phantom; assay type: physicochemical; conditions: 800 nm; for fractional PA intensity change upon polarization: 20 samples
Method: (§2) Lipid vesicles were prepared from 25-mg soybean phosphatidylcholine (type II) suspended in 1 mL of K^+ buffer, which contains 100 mM K2SO4 and 20 mM HEPES. This suspension was vortexed for 10 min and sonicated in bath-type sonicator for 60 min, yielding a translucent vesicle suspension. A Na^+ buffer containing 100 mM Na2SO4 and 20 mM HEPES was prepared. During experiments, 10 μL of vesicle suspension was added to 1 mL of Na^+ buffer, resulting in an approximately 100:1 K^+ gradient across vesicle membrane. VSD was added to this suspension. When 2.5 μL of 10 μM valinomycin—a K^+ specific ionophore—was added, K^+ ions were transported from inside to outside of vesicle membranes, resulting in a negative membrane potential. This negative potential drives the positively charged VSDs into the vesicles, which causes aggregation of dyes and quenching of fluorescence. Subsequent addition of 2.5 μL of 1 mM gramicidin, a nonspecific monovalent cation ionophore, allows Na^+ cations to move from outside to inside of vesicle membranes to short circuit the membrane potential.
The PA sensing system was employed for the characterization of the synthesized PA-VSD (FIG. 3); Q-switched Nd:YAG laser integrated with an optical parametric oscillator (Phocus Inline and MagicPrism, Opotek Inc.) was used for PA signal generation. With the tunability of the laser system, the spectral responses for near-infrared wavelengths (i.e., 700 to 850 nm at 10-nm interval) were scanned with 20-Hz pulsed repetition frequency and […]. The light was delivered through an optical fiber bundle with a 9-mm round shaped output, which was aligned with an ultrasound receiver. The PAVSD in the lipid vesicles suspension was loaded into transparent tubes with 1.27-mm diameter (AAQ04133, Tygon®, SaintGobain Corp.), which were located at around 30 mm depth in the water tank. Note that the temperature of the water was consistently maintained at 22° C. during the experiments. A 10-MHz linear ultrasound probe (L 14-5/38, Ultrasonix Corp.) was used for PA-VSD sensing in a practical circumstance with a limited bandwidth (i.e., 75%-6 dB fractional bandwidth). Similarly, a hydrophone with wide flat bandwidth from 250 kHz to 20 MHz (HGL-1000, Onda Corp., California) was used to collect single line radio-frequency (RF) PA pressure signal. Twenty sets of PA data were collected, in which 19 of them were collected using the linear array transducer, and the other was through the hydrophone, and the average and standard deviation values were calculated. The PA signals acquired at the depth of target were used to form an averaged RF signal, which is further processed to present PA intensity at each optical wavelength; this permitted an accurate correlation with the spectrophotometric measurements. For the imaging setup, one set of data was obtained using the linear array transducer from 9 μM PA-VSD at 800-nm optical wavelength, and the difference between the resting and polarized states was analyzed.

[8] = Spectrophoto/fluorometric characterization of PA-VSD in lipid vesicle suspension (valinomycin/gramicidin); assay type: physicochemical; conditions: for fluorescence quenching (fractional change in fluorescence) upon valinomycin polarization: 9 μM concentration, emission 825 nm
Method: as §2, with “This suspension was vortexed for 10 min and sonicated in bath-type sonicator for 60 min, yielding a translucent vesicle suspension.” left out
A combined spectrophoto/fluorometer system (Spectramax i3x, Molecular Devices) was used to measure both fluorescence and absorbance of the PA-VSD with 1, 3, 6, and 9 μM concentrations. For fluorescence, the measurement was conducted for the spectral range from 750 to 850 nm at 10-nm increment, and the absorbance was measured in the range from 600 to 900 nm at 5-nm increments. Note that 720-nm wavelength was used for excitation during spectrofluorometry of the PA-VSD.

[9] = estimated with theoretical model
[10] = direct cortical application, 100×

SMILES: CCCN1/C(=C/C=C2\CCCC(/C=C/C3=[N+](CCC)c4ccccc4C3(C)C)=C2Cl)C(C)(C)c2ccccc21.[I-] [IR780, IR780 perchlorate]
PA intensity decrease in depolarization state compared to polarized state (pure VSD contrast) [1]: 12.3±6.7% | PA intensity decrease in depolarization state compared to polarized state (pure VSD contrast) ([1]; listed as VSD): 12.3% and 12.22% | quantum yield in the depolarized state [1, 9]: 0.28±0.10 | quantum yield in the polarized state [1, 9]: 0.17±0.06 | neural activity index (fractional change vs baseline) (rat brain motor cortex; control group (VSD+Lexiscan, no PTZ)): 0.93±0.25 | neural activity index (fractional change vs baseline) (rat brain motor cortex; seizure group (VSD+Lexiscan+PTZ), motor cortex, 790 nm): 2.40±0.42 | PTZ evolution of status on EEG (rat motor cortex [2]): did not alter | fractional increase of PA intensity from the natural condition (VSD−, Lexiscan−) [3]: 1.09±0.09 | peak absorbance [4]: 790 nm | absorbance change between polarized and depolarized states ([4]; valinomycin and gramicidin): 3% | fluorescence emission change between polarized and depolarized states ([4]; valinomycin and gramicidin): 40.1% | course of EEG suppression (rat motor cortex [5]; 100×, over the 10-min recording period): recovered to baseline | EEG effect of 100× solution (rat motor cortex [5]; [10]): significant EEG background suppression | rats with significant EEG background suppression (rat motor cortex [5]; [10]): 4/6 | effect on baseline EEG (rat motor cortex [5]; direct cortical application, lower concentrations, 10-min recordings): no effect in altering the baseline EEG; also recorded: remained unaltered

SMILES: CNC(=O)c1cnn(-c2nc(N)c3ncn([C@@H]4O[C@H](CO)[C@@H](O)[C@H]4O)c3n2)c1 [Lexiscan, regadenoson]
neural activity index (rat brain motor cortex; negative control group without VSD, Lexiscan+/PTZ−): 0.92±0.23 | biological half-life [6]: 2-4 min and 2-3 min

fluorescence emission ([8]; in the presence of lipid membranes): 828 nm
SMILES: CCN1/C(=C/C=C/C=C/C=C/C2=[N+](CC)c3ccc4ccccc4c3C2(C)C)C(C)(C)c2c1ccc1ccccc21.[I-] [PAVSD800-2]
fractional PA intensity change upon polarization ([7]; 1 μM): 17% | fractional PA intensity change upon polarization ([7]; 3 μM): 24% | fractional PA intensity change upon polarization ([7]; 6 μM): 17% | PA intensity increase in the polarized state ([7]; 6 μM, typical experiment): 14% | fractional PA intensity change upon polarization ([7]; 9 μM): 17% | fractional change of PA signals ([7]; 9 μM, dataset chosen for reconstructed PA images): 22.72% | fluorescence quenching (fractional change in fluorescence) upon valinomycin polarization [8]: up to 49% | fluorescence quenching (fractional change in fluorescence) upon valinomycin polarization ([8]; listed as PA-VSD): 49%
